Test results published in ChEMBL document CHEMBL4138123, “Design, synthesis and biological evaluation of novel pyrazolochalcones as potential modulators of PI3K/Akt/mTOR pathway and inducers of apoptosis in breast cancer cells” (Eur J Med Chem, 2017).

Legend:
Type in all cases: functional
NCI/ADR-RES = experiment: Cytotoxicity against human NCI/ADR-RES cells assessed as growth inhibition after 48 hrs by sulforhodamine B assay
UACC-62 [1] = experiment: Cytotoxicity against human UACC62 cells assessed as growth inhibition after 48 hrs by sulforhodamine B assay; details: UACC-62, 48 h
UO-31 = experiment: Cytotoxicity against human UO31 cells assessed as growth inhibition after 48 hrs by sulforhodamine B assay; details: UO-31, 48 h
U-251 [2] = experiment: Cytotoxicity against human U251 cells assessed as growth inhibition after 48 hrs by sulforhodamine B assay; details: U-251, 48 h
HCT-15 = experiment: Cytotoxicity against human HCT15 cells assessed as growth inhibition after 48 hrs by sulforhodamine B assay; details: HCT-15, 48 h
A549 [3] = experiment: Cytotoxicity against human A549/ATCC cells assessed as growth inhibition after 48 hrs by sulforhodamine B assay; details: A549, 48 h
T47D [4] = experiment: Cytotoxicity against human T47D cells assessed as growth inhibition after 48 hrs by sulforhodamine B assay
MDA-MB-231 [5] = experiment: Cytotoxicity against human MDA-MB-231 cells assessed as growth inhibition after 48 hrs by sulforhodamine B assay; details: MDA-MB-231, 48 h
RXF 393 = experiment: Cytotoxicity against human RXF393 cells assessed as growth inhibition after 48 hrs by sulforhodamine B assay; details: RXF 393, 48 h
SK-OV-3 = experiment: Cytotoxicity against human SKOV3 cells assessed as cell growth at 0.01 uM after 48 hrs by sulforhodamine B assay relative to control; details: SK-OV-3, 48 h, read-out: Activity
SF-268 = experiment: Cytotoxicity against human SF268 cells assessed as cell growth at 10 uM after 48 hrs by sulforhodamine B assay relative to control; details: SF-268, 48 h, read-out: Activity
OVCAR-5 = experiment: Cytotoxicity against human OVCAR5 cells assessed as cell growth at 100 uM after 48 hrs by sulforhodamine B assay relative to control; details: OVCAR-5, 48 h, read-out: Activity
Malme-3M = experiment: Cytotoxicity against human MALME-3M cells assessed as cell growth at 0.1 uM after 48 hrs by sulforhodamine B assay relative to control; details: read-out: Activity
NCI-H460 [6] = experiment: Cytotoxicity against human NCI-H460 cells assessed as cell growth at 1 uM after 48 hrs by sulforhodamine B assay relative to control; details: NCI-H460, 48 h, read-out: Activity
SF-539 [7] = experiment: Cytotoxicity against human SF539 cells assessed as cell growth at 0.01 uM after 48 hrs by sulforhodamine B assay relative to control; details: SF-539, 48 h, read-out: Activity
T47D [8] = experiment: Cytotoxicity against human T47D cells assessed as cell growth at 0.1 uM after 48 hrs by sulforhodamine B assay relative to control; details: read-out: Activity
HCT-116 = experiment: Cytotoxicity against human HCT116 cells assessed as cell growth at 0.1 uM after 48 hrs by sulforhodamine B assay relative to control; details: HCT-116, 48 h, read-out: Activity
NCI-H522 [9] = experiment: Cytotoxicity against human NCI-H522 cells assessed as cell growth at 10 uM after 48 hrs by sulforhodamine B assay relative to control; details: NCI-H522, 48 h, read-out: Activity
OVCAR-3 = experiment: Cytotoxicity against human OVCAR3 cells assessed as cell growth at 1 uM after 48 hrs by sulforhodamine B assay relative to control; details: OVCAR-3, 48 h, read-out: Activity
SK-MEL-5 = experiment: Cytotoxicity against human SK-MEL-5 cells assessed as cell growth at 1 uM after 48 hrs by sulforhodamine B assay relative to control; details: SK-MEL-5, 48 h, read-out: Activity
MDA-MB-435 = experiment: Cytotoxicity against human MDA-MB-435 cells assessed as cell growth at 0.1 uM after 48 hrs by sulforhodamine B assay relative to control; details: MDA-MB-435, 48 h, read-out: Activity
T47D [10] = experiment: Cytotoxicity against human T47D cells assessed as cell growth at 0.01 uM after 48 hrs by sulforhodamine B assay relative to control; details: read-out: Activity
M14 = experiment: Cytotoxicity against human M14 cells assessed as cell growth at 0.01 uM after 48 hrs by sulforhodamine B assay relative to control; details: M14, 48 h, read-out: Activity
NCI-H522 [11] = experiment: Cytotoxicity against human NCI-H522 cells assessed as cell growth at 0.01 uM after 48 hrs by sulforhodamine B assay relative to control; details: NCI-H522, 48 h, read-out: Activity
MDA-MB-231 [12] = experiment: Cytotoxicity against human MDA-MB-231 cells assessed as cell growth at 0.1 uM after 48 hrs by sulforhodamine B assay relative to control; details: MDA-MB-231, 48 h, read-out: Activity
A549 [13] = experiment: Cytotoxicity against human A549/ATCC cells assessed as cell growth at 0.01 uM after 48 hrs by sulforhodamine B assay relative to control; details: A549, 48 h, read-out: Activity
U-251 [14] = experiment: Cytotoxicity against human U251 cells assessed as cell growth at 0.1 uM after 48 hrs by sulforhodamine B assay relative to control; details: U-251, 48 h, read-out: Activity
KM12 = experiment: Cytotoxicity against human KM12 cells assessed as cell growth at 100 uM after 48 hrs by sulforhodamine B assay relative to control; details: KM12, 48 h, read-out: Activity
SF-539 [15] = experiment: Cytotoxicity against human SF539 cells assessed as cell growth at 10 uM after 48 hrs by sulforhodamine B assay relative to control; details: SF-539, 48 h, read-out: Activity
NCI-H23 = experiment: Cytotoxicity against human NCI-H23 cells assessed as cell growth at 1 uM after 48 hrs by sulforhodamine B assay relative to control; details: NCI-H23, 48 h, read-out: Activity
UACC-62 [16] = experiment: Cytotoxicity against human UACC62 cells assessed as cell growth at 0.1 uM after 48 hrs by sulforhodamine B assay relative to control; details: UACC-62, 48 h, read-out: Activity
NCI-H460 [17] = experiment: Cytotoxicity against human NCI-H460 cells assessed as cell growth at 100 uM after 48 hrs by sulforhodamine B assay relative to control; details: NCI-H460, 48 h, read-out: Activity
A498 = experiment: Cytotoxicity against human A498 cells assessed as cell growth at 0.01 uM after 48 hrs by sulforhodamine B assay relative to control; details: A498, 48 h, read-out: Activity
MDA-MB-468 = experiment: Cytotoxicity against human MDA-MB-468 cells assessed as cell growth at 100 uM after 48 hrs by sulforhodamine B assay relative to control; details: MDA-MB-468, 48 h, read-out: Activity

**Q.** Which GI50 (NCI/ADR-RES) does the source give for `COc1ccc(-c2cc(/C=C/C(=O)c3ccc4c(c3)OCO4)[nH]n2)cc1OC` here?
**A.** Its GI50 is 3.43 µM.

**Q.** And the GI50 (UACC-62 [1])?
**A.** The GI50 was 1.86 µM.

**Q.** And the GI50 (UO-31)?
**A.** The GI50 was 1.5 µM.

**Q.** What about the GI50 (U-251 [2]) of the same compound?
**A.** Its GI50 is 1.2 µM.

**Q.** And the GI50 (HCT-15)?
**A.** The GI50 was 1.09 µM.

**Q.** What about the GI50 (A549 [3]) of the same compound?
**A.** Its GI50 is 2.25 µM.

**Q.** And the GI50 (T47D [4])?
**A.** Its GI50 is 1.36 µM.

**Q.** What about the GI50 (MDA-MB-231 [5]) of the same compound?
**A.** The GI50 was 1.88 µM.

**Q.** And the GI50 (RXF 393)?
**A.** Its GI50 is 1.92 µM.

**Q.** `COc1cc(C(=O)/C=C/c2cc(-c3cc(OC)c(OC)c(OC)c3)n[nH]2)cc(OC)c1OC` was tested. Which LC50 (NCI/ADR-RES) did it give?
**A.** The LC50 was > 100 µM.

**Q.** And the TGI (NCI/ADR-RES)?
**A.** The TGI was 21.4 µM.

**Q.** And the growth at 0.01 µM (SK-OV-3)?
**A.** Its growth at 0.01 µM is 100%.

**Q.** And the LC50 (UACC-62 [1])?
**A.** The LC50 was 7.6 µM.

**Q.** What about the TGI (UACC-62 [1]) of the same compound?
**A.** The TGI was 3.68 µM.

**Q.** What about the growth at 10 µM (SF-268) of the same compound?
**A.** Its growth at 10 µM is -45%.

**Q.** What about the growth at 100 µM (OVCAR-5) of the same compound?
**A.** The growth at 100 µM was -72%.

**Q.** What about the growth at 0.1 µM (Malme-3M) of the same compound?
**A.** Its growth at 0.1 µM is 101%.

**Q.** What about the growth at 1 µM (NCI-H460 [6]) of the same compound?
**A.** The growth at 1 µM was 89%.

**Q.** What about the growth at 0.01 µM (SF-539 [7]) of the same compound?
**A.** The growth at 0.01 µM was 92%.

**Q.** And the growth at 0.1 µM (T47D [8])?
**A.** Its growth at 0.1 µM is 92%.

**Q.** And the growth at 0.1 µM (HCT-116)?
**A.** Its growth at 0.1 µM is 104%.

**Q.** And the growth at 10 µM (NCI-H522 [9])?
**A.** Its growth at 10 µM is -97%.

**Q.** What about the growth at 1 µM (OVCAR-3) of the same compound?
**A.** The growth at 1 µM was 97%.

**Q.** What about the growth at 1 µM (SK-MEL-5) of the same compound?
**A.** Its growth at 1 µM is 86%.

**Q.** And the growth at 0.1 µM (MDA-MB-435)?
**A.** The growth at 0.1 µM was 94%.

**Q.** What about the growth at 0.01 µM (T47D [10]) of the same compound?
**A.** The growth at 0.01 µM was 91%.

**Q.** What about the LC50 (UO-31) of the same compound?
**A.** Its LC50 is 5.16 µM.

**Q.** And the TGI (UO-31)?
**A.** Its TGI is 2.48 µM.

**Q.** What about the growth at 0.01 µM (M14) of the same compound?
**A.** Its growth at 0.01 µM is 96%.

**Q.** What about the growth at 0.01 µM (NCI-H522 [11]) of the same compound?
**A.** Its growth at 0.01 µM is 101%.

**Q.** And the growth at 0.1 µM (MDA-MB-231 [12])?
**A.** The growth at 0.1 µM was 104%.

**Q.** And the LC50 (U-251 [2])?
**A.** Its LC50 is 5.67 µM.

**Q.** What about the TGI (U-251 [2]) of the same compound?
**A.** Its TGI is 2.96 µM.

**Q.** And the growth at 0.01 µM (A549 [13])?
**A.** The growth at 0.01 µM was 97%.

**Q.** And the growth at 0.1 µM (U-251 [14])?
**A.** The growth at 0.1 µM was 94%.

**Q.** What about the LC50 (HCT-15) of the same compound?
**A.** Its LC50 is 7.19 µM.

**Q.** And the TGI (HCT-15)?
**A.** The TGI was 3.29 µM.

**Q.** What about the LC50 (concentration giving 50% net cell kill) (A549 [3]) of the same compound?
**A.** The LC50 (concentration giving 50% net cell kill) was 59.2 µM.

**Q.** What about the TGI (A549 [3]) of the same compound?
**A.** Its TGI is 12.1 µM.

**Q.** What about the LC50 (T47D [4]) of the same compound?
**A.** The LC50 was 5.86 µM.

**Q.** And the TGI (T47D [4])?
**A.** Its TGI is 2.57 µM.

**Q.** What about the growth at 100 µM (KM12) of the same compound?
**A.** Its growth at 100 µM is -81%.

**Q.** And the growth at 10 µM (SF-539 [15])?
**A.** The growth at 10 µM was -80%.

**Q.** And the growth at 1 µM (NCI-H23)?
**A.** Its growth at 1 µM is 97%.

**Q.** And the growth at 0.1 µM (UACC-62 [16])?
**A.** The growth at 0.1 µM was 95%.

**Q.** What about the LC50 (MDA-MB-231 [5]) of the same compound?
**A.** Its LC50 is 9.51 µM.

**Q.** And the TGI (MDA-MB-231 [5])?
**A.** Its TGI is 3.8 µM.

**Q.** And the growth at 100 µM (NCI-H460 [17])?
**A.** The growth at 100 µM was -55%.

**Q.** What about the LC50 (concentration killing 50% of cells) (RXF 393) of the same compound?
**A.** The LC50 (concentration killing 50% of cells) was 5.68 µM.

**Q.** And the TGI (RXF 393)?
**A.** Its TGI is 2.67 µM.

**Q.** And the growth at 0.01 µM (A498)?
**A.** Its growth at 0.01 µM is 95%.

**Q.** What about the growth at 100 µM (MDA-MB-468) of the same compound?
**A.** Its growth at 100 µM is -91%.
